Measured values reported in ChEMBL document CHEMBL1201862, “PubChem BioAssay data set” (2004).
Several values for one entry are separate records, joined by “and”; a condition that tells them apart may be missing. Identical values can stand only once.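 Step 1: Grow cells in 96-well plates. Step 2: Expose to compound for 48 hours at 5 concentrations. Step 3: Interpolate endpoints linearly; if unreached, use highest concentration. GI50 = concentration required for 50% inhibition of growth.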 Activity calls are given as the source filed them. No stated cut-off is given here; in the data, active = GI50 up to about 1.1 µM and inactive = higher. Non-standard residues stand in square brackets, D forms with d. Residues, ends and D or L forms follow the SMILES beside them. *: point of attachment. NMeF = CN[CH](Cc1ccccc1)C(=O)O; NMeV = CN[CH](C(=O)O)C(C)C; Boc = CC(C)(C)OC(=O)*; OBn = c1ccc(CO*)cc1

Key:
Test in all cases: inhibition of tumour cell growth, NCI panel, 48 h
[1] = test system: DMS-273
[2] = test system: SK-OV-3
[3] = test system: HL-60
[4] = test system: HCT-116
[5] = test system: IGROV-1
[6] = test system: NCI-H23
[7] = test system: EKVX
[8] = test system: M14
[9] = test system: UO-31
[10] = test system: A549
[11] = test system: UACC-62
[12] = test system: DMS-114
[13] = test system: HCC 2998
[14] = test system: SK-MEL-5
[15] = test system: SF-268
[16] = test system: NCI-H522
[17] = test system: SW-620
[18] = test system: NCI-H226
[19] = test system: Malme-3M
[20] = test system: HOP-62
[21] = test system: SK-MEL-28
[22] = test system: NCI-H460
[23] = test system: U-251
[24] = test system: SF-295
[25] = test system: COLO 205
[26] = test system: TK-10
[27] = test system: 786-0
[28] = test system: OVCAR-8
[29] = test system: HCT-15
[30] = test system: SR
[31] = test system: OVCAR-4
[32] = test system: SNB-19
[33] = test system: K562
[34] = test system: MDA-N
[35] = test system: A498
[36] = test system: MDA-MB-435
[37] = test system: KM12
[38] = test system: DU-145
[39] = test system: NCI/ADR-RES
[40] = test system: SF-539
[41] = test system: SK-MEL-2
[42] = test system: MCF7
[43] = test system: OVCAR-5
[44] = test system: MDA-MB-231
[45] = test system: BT-549
[46] = test system: CCRF-CEM
[47] = test system: HT-29
[48] = test system: UACC-257
[49] = test system: Hs-578T
[50] = test system: ACHN
[51] = test system: SN12C
[52] = test system: LOX IMVI
[53] = test system: CAKI-1
[54] = test system: MOLT-4
[55] = test system: RXF 393
[56] = test system: PC-3
[57] = test system: SNB-75
[58] = test system: OVCAR-3
[59] = test system: RPMI-8226
[60] = test system: HOP-92
[61] = test system: T47D

Measured: GI50

CC(C)C(NC(=O)OC(C)(C)C)C(=O)N(C)C(Cc1ccccc1)C(=O)N(C)C(C(=O)OCc1ccccc1)C(C)C (stereo not drawn) (Boc-Val-[NMeF]-[NMeV]-OBn; configuration not given here)
inactive: [1] 34.1 µM and 33.8 µM | [2] > 100 µM | [3] 33.4 µM and 19.5 µM | [4] 40 µM and 28.4 µM | [5] 91.2 µM | [6] 37.1 µM and 68.5 µM | [7] > 100 µM and 62.1 µM | [8] 59.3 µM and 94.4 µM | [9] 85.3 µM and 53.1 µM | [10] 39.5 µM and 46.8 µM | [11] 81.8 µM | [12] 29.4 µM and 30.5 µM | [13] > 100 µM | [14] 15.4 µM | [15] > 100 µM | [16] 12.2 µM and 22.8 µM | [17] 75.2 µM | [18] > 100 µM and 73.5 µM | [19] > 100 µM | [20] 85.9 µM | [21] > 100 µM | [22] 39 µM and 41 µM | [23] 82.2 µM and 43.8 µM | [24] 17.6 µM and 34.6 µM | [25] 37.7 µM and 44.2 µM | [26] > 100 µM | [27] > 100 µM | [28] 74.6 µM and 70.5 µM | [30] 27.9 µM and 22.6 µM
67.1 µM and 79.3 µM: [29]

COc1cc(C2c3cc4c(cc3OC(N3CCCC3)C2C)OCO4)cc(OC)c1O (centres undefined)
14 µM: [29]
inactive: [2] 11.5 µM | [3] 4.58 µM | [4] 9.98 µM | [5] 19.4 µM | [31] 59.6 µM | [6] 23.4 µM | [7] 32.5 µM | [8] 16 µM | [32] 13.2 µM | [9] 44.3 µM | [33] 4.88 µM | [10] 19 µM | [11] 5.16 µM | [34] 2.31 µM | [35] 21.1 µM | [13] 28.2 µM | [36] 2.48 µM | [37] 6.59 µM | [14] 4.9 µM | [38] 31.7 µM | [15] 22.9 µM | [39] 5.93 µM | [16] 3.61 µM | [17] 6.89 µM | [18] 25.5 µM | [19] 8.09 µM | [40] 14.9 µM | [41] 14.8 µM | [42] 9.93 µM | [43] 61.5 µM | [44] 19.4 µM | [45] 13.3 µM | [46] 15.1 µM | [47] 17.4 µM | [48] 35.6 µM | [49] 4.66 µM | [20] 11.6 µM | [21] > 43.9 µM | [22] 16.3 µM | [50] 28.6 µM | [23] 11.6 µM | [24] 3.71 µM | [51] 23.4 µM | [52] 23 µM | [53] 16.1 µM | [54] 24.6 µM | [25] 23.1 µM | [26] 19.4 µM | [55] 7.46 µM | [27] 13.9 µM | [56] 20.8 µM | [57] 4.26 µM | [58] 13.5 µM | [28] 24 µM | [59] 45.6 µM | [60] 19.4 µM | [61] 31.8 µM | [30] 5.89 µM
